This note sets out measurements from paper PMC10341549, “Inhibitory Investigations of Acyl-CoA Derivatives against Human Lipoxygenase Isozymes” (International Journal of Molecular Sciences, 2023).

pIC50: −log10 of the molar value.

Holding throughout (type): biochemical
One assay deals with T1, h15-LOX-2 (Homo sapiens, UniProt O15296).
T1 construct: His tag; made in house
T1 sequence (O15296 1-676): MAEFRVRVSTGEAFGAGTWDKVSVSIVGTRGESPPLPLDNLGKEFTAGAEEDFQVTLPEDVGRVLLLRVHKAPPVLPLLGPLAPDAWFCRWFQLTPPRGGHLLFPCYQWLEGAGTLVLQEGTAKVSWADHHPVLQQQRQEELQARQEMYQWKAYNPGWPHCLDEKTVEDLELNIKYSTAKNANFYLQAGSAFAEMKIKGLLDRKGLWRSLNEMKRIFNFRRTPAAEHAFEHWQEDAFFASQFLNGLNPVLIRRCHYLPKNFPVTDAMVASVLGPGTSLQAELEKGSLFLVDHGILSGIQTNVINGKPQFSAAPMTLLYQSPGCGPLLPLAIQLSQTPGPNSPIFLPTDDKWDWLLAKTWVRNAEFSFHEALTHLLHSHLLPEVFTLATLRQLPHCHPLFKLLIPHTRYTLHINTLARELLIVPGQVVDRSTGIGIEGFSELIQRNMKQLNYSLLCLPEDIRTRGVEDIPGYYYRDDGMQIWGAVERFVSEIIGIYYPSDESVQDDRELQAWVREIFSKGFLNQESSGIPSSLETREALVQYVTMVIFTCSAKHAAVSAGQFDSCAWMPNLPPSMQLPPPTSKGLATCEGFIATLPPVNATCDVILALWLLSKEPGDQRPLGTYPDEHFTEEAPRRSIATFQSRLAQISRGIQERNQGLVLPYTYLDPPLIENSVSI
Nature of the assay: IC50 determination against h15-LOX-2. The note with it: 10 μM AA, 25 mM HEPES pH 7.5, 0.01% Triton X-100, 22 °C. The protocol:
(§1) Overexpression and purification of his-tagged wild-type h12-LOX (Uniprot entry P18054), h15-LOX-1 (Uniprot entry P16050), and h15-LOX-2 (Uniprot entry O15296) were performed using nickel-affinity chromatography. The purity of h12-LOX, h15-LOX-1, and h15-LOX-2 was assessed using SDS gel as greater than 85%, and metal content was assessed with a Finnigan inductively coupled plasma mass spectrometer (ICP-MS, Thermo Fischer Scientific, San Jose, USA) via comparison with iron standard solution. Cobalt-EDTA was used as an internal standard. WT h5-LOX (UniProt entry P09917) was expressed in Rosetta 2 cells (Novagen) transformed with the pET14b-Stable-5-LOX plasmid (a gift from Marcia Newcomer of Louisiana State University) and grown in Terrific Broth containing 34 μg/mL chloramphenicol and 100 μg/mL ampicillin at 37 °C for 3.5 h, then placed at 20 °C for an additional 26 h. Cells were pelleted and resuspended in 50 mM Tris (pH 8.0), 500 mM NaCl, 20 mM imidazole with 1 μM pepstatin, 100 μM PMSF, and DNaseI (Sigma, Kanagawa, Japan). The cells were lysed in a French pressure cell and centrifuged at 40,000× g for 20 min at 4 °C. Saturated ammonium sulfate was added to achieve a final solution of 10% and inverted several times. The lysate was centrifuged at 40,000× g for 10 min at 4 °C. The pellet was discarded, and the supernatant was increased to a final concentration of 50% ammonium sulfate. The supernatant was rotated for 10 min at 4 °C then centrifuged at 40,000× g for 10 min at 4 °C. The pellet was split into 150 mg aliquots. The WT h5-LOX used for the kinetics in this work was not purified due to a dramatic loss in activity and was therefore prepared as an ammonium-sulfate precipitate.
(§2) IC50 values for each acyl-CoA were measured against h5-LOX, h12-LOX, h15-LOX-1, and h15-LOX-2. The reactions were carried out in 25 mM HEPES buffer (pH 8.00), 0.01% Triton X-100, and 10 μM AA for h12-LOX; 25 mM HEPES buffer (pH 7.5), 0.01% Triton X-100, and 10 μM AA for h15-LOX-1 and h15-LOX-2; and 50 mM HEPES buffer (pH 7.5), 100 µM EDTA, 50 mM NaCl, 200 µM ATP, and 10 μM AA for h5-LOX. IC50 reactions were implemented with h15-LOX-1 (0.125 μM), h12-LOX (0.300 μM), h15-LOX-2 (0.5 μM), and h5-LOX (∼600 nM ammonium sulfate salt) at 22 °C in a 1 cm^2 quartz cuvette containing 2 mL of the according buffer and 10 μM AA for no longer than 2 min to avoid any cleavage of the acyl-coenzyme A. Inhibitor concentrations ranging from 50 μM to 0.01 μM were used. All reactions were conducted using a Cary-UV Vis spectrophotometer (Agilent, Santa Clara, CA, USA). The fastest rates over 15 s intervals were recorded. IC50 values were obtained by determining the percent of inhibition of the enzymatic rate at ten inhibitor concentrations and plotting the rate against the inhibitor concentration, followed by a hyperbolic saturation curve fit. The saturation curve fits were performed in duplicate or triplicate, depending on the quality of the data. […] Through HPLC monitoring, we were able to determine a lack of degradation of the fatty acyl-CoAs over the first hour.

A further assay concerns the target T2, h12-LOX (Homo sapiens, UniProt P18054).
T2 construct: His tag; made in house
T2 sequence (P18054 1-663): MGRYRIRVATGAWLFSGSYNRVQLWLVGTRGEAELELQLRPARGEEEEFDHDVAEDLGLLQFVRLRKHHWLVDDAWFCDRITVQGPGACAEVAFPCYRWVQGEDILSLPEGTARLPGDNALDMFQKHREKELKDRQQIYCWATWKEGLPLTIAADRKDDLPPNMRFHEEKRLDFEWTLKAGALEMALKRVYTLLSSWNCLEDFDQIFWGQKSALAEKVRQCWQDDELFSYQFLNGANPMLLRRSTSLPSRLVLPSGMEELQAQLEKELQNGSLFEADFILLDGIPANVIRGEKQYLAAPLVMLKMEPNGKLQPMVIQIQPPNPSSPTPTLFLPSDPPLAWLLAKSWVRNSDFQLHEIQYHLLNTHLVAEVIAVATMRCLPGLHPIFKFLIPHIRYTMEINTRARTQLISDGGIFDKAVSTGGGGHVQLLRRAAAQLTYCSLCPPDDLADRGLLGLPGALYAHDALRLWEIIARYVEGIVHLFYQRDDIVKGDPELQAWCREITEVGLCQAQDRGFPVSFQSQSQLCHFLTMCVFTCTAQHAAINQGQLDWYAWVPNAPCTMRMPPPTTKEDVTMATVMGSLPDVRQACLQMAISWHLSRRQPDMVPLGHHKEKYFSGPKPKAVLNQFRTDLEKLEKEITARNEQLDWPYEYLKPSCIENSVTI
As to the kind of experiment: IC50 determination against h12-LOX. The note with it: methyl esters; 10 μM AA, pH 8.00; read-out: IC50 h12-LOX (methyl ester unsaturated fatty acids). The protocol:
as §1
IC50 values for each acyl-CoA were measured against h5-LOX, h12-LOX, h15-LOX-1, and h15-LOX-2. […] The fastest rates over 15 s intervals were recorded. […]

Assay [1] concerns the target T3, h15-LOX-1 (Homo sapiens, UniProt P16050).
T3 construct: His tag; made in house
T3 sequence (P16050 1-662): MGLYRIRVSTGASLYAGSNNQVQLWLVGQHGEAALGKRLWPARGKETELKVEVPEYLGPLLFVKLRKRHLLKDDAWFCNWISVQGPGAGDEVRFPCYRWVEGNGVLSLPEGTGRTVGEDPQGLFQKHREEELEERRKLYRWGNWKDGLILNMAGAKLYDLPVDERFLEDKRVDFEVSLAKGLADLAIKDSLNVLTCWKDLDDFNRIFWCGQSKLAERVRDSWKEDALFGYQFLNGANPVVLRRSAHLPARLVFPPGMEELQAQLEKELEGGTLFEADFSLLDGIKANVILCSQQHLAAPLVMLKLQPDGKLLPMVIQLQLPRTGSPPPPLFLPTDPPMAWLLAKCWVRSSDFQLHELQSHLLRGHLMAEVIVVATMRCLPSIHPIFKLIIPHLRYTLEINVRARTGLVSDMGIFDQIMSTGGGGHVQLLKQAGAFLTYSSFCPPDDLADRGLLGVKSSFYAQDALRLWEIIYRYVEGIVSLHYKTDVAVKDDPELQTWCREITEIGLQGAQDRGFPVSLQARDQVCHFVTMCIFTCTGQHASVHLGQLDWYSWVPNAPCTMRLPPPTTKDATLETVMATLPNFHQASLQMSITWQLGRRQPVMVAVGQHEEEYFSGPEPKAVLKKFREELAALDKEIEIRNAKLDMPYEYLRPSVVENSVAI
Nature of the assay: IC50 determination against h15-LOX-1. The note with it: 10 μM AA, 25 mM HEPES pH 7.5, 0.01% Triton X-100, 22 °C. As for the experimental part: as §1, §2

In assay [2] the target is T3, h15-LOX-1. Nature of the assay: Substrate activity and kinetic parameters with h15-LOX-1. The note with it: acyl-CoAs tested at 70 µM; change in absorbance at 234 nm. The protocol:
Considering that some of these acyl-CoAs could potentially be substrates for LOX isozymes, each acyl-CoA was tested at 70 µM against each LOX isozyme to establish the possibility of catalysis.
The same buffer as used to determine IC50 values for h5-LOX was used for product determination. Turnover was monitored by absorbance at 234 nm.

In general, pIC50 refers to the IC50 on a negative log10 scale, so that one unit is a factor of ten. On to `CC/C=C\C/C=C\C/C=C\CCCCCCCCCCCC(=O)OC` [methyl 13(Z),16(Z),19(Z)-docosatrienoate, methyl-13(Z),16(Z),19(Z)-docosatrienoate (22:3)], for which the pIC50 on h15-LOX-2, on h12-LOX and on h15-LOX-1 [1] was < 3.70 in each case.

For the compound `CC/C=C\C/C=C\C/C=C\CC/C=C\CCCCCCCC(=O)OC` [methyl docosatetraenoate, methyl-9(Z),13(Z),16(Z),19(Z)-docosatetraenoate (22:4)], the pIC50 against h15-LOX-2, on h12-LOX and on h15-LOX-1 [1] was < 3.70 throughout.

As to `CCCCC/C=C\C/C=C\C/C=C\C/C=C\CCCC(=O)OC` [methyl ester arachidonic acid], the “Substrate activity with h15-LOX-1” value at h15-LOX-1 [2] is given as “substrates”.

As for `CCCCC/C=C\C/C=C\CCCCCCCCCCCC(=O)OC` [methyl-13Z,16Z-docosadienoic, methyl-13Z,16Z-docosadienoic (22:2)], the pIC50 on h15-LOX-2, on h12-LOX and at h15-LOX-1 [1] was < 3.70 in each case.
